For 14 compounds, IC50 results are on record in patent publication US20210070748A1, “INHIBITORS OF BRUTONS TYROSINE KINASE” (Pharmacyclics LLC, priority 2015, published 2021).

Where two headings read alike, the source gives them in different places.

What all share (assay type): biochemical
In one assay the target is T1, JAK3 (Homo sapiens, UniProt P52333).
T1 sequence (P52333 1-1124): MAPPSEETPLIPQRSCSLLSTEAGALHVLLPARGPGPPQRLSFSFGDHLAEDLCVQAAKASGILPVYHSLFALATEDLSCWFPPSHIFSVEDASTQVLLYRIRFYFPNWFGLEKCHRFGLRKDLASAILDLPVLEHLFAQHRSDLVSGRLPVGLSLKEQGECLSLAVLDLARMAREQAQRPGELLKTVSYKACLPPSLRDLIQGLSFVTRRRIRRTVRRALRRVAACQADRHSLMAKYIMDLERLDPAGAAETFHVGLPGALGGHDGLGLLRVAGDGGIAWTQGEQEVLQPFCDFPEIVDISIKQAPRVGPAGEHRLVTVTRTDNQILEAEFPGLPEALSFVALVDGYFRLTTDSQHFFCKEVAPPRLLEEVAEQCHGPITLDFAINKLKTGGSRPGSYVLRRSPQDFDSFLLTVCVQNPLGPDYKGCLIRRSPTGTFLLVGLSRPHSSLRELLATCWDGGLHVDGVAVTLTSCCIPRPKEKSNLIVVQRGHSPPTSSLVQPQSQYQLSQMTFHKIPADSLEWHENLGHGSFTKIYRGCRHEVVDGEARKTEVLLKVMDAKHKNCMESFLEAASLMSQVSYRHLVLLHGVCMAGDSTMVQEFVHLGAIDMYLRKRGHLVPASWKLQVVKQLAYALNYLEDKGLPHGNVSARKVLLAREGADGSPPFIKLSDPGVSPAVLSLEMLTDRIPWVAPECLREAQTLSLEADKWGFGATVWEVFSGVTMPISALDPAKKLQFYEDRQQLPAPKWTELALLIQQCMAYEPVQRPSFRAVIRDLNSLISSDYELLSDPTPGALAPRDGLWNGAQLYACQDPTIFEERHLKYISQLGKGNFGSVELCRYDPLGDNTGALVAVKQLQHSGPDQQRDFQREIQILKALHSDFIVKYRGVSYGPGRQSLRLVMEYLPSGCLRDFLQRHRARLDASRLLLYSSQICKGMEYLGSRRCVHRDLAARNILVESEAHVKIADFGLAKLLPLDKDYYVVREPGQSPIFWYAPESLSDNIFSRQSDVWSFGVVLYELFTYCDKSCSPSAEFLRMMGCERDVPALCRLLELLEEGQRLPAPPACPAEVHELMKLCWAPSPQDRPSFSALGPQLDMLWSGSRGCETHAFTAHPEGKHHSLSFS
Kind of assay: Inhibition of a panel of kinases, in vitro HotSpot kinase assay: JAK3. The conditions noted are these: read-out: IC50 JAK3.

A further assay deals with LCK (Homo sapiens, UniProt P06239). Put plainly: Inhibition of a panel of kinases, in vitro HotSpot kinase assay: LCK. The conditions noted are these: read-out: IC50 LCK.
Another assay addresses T2, ITK (Homo sapiens, UniProt Q08881).
T2 sequence (Q08881 1-620): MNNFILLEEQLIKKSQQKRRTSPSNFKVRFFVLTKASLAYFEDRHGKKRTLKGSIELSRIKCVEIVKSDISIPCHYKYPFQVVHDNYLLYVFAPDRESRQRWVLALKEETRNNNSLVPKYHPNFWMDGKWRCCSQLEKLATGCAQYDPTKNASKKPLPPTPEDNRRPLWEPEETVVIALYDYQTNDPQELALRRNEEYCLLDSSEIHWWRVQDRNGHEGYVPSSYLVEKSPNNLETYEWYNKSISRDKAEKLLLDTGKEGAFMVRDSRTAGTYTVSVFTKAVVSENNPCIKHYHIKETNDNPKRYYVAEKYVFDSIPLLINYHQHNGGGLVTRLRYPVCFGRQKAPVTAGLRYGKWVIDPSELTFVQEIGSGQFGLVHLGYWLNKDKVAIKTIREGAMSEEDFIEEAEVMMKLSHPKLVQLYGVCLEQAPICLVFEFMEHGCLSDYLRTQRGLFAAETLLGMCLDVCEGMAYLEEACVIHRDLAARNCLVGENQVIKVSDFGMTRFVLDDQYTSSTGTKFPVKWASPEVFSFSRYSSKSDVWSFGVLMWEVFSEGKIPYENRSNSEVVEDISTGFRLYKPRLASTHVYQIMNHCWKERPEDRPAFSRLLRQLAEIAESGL
Put plainly: Inhibition of a panel of kinases, in vitro HotSpot kinase assay: ITK. The procedure:
(§1) The degree of inhibition of a panel of kinases is determined using the in vitro HotSpot kinase assay (purified enzymes, ^33P-ATP, an appropriate substrate and 1 μM ATP).

In the next assay the target is EGFR (Homo sapiens, UniProt P00533). Put plainly: Inhibition of a panel of kinases, in vitro HotSpot kinase assay: EGFR. The procedure: as §1
In a further assay the target is SRC (Homo sapiens, UniProt P12931). Kind of assay: Inhibition of a panel of kinases, in vitro HotSpot kinase assay: SRC. The procedure:
as §1

The mark [1] stands for this setting: Table 13, A compounds, 1 μM ATP.

LCK, sequence (P06239 whole entry): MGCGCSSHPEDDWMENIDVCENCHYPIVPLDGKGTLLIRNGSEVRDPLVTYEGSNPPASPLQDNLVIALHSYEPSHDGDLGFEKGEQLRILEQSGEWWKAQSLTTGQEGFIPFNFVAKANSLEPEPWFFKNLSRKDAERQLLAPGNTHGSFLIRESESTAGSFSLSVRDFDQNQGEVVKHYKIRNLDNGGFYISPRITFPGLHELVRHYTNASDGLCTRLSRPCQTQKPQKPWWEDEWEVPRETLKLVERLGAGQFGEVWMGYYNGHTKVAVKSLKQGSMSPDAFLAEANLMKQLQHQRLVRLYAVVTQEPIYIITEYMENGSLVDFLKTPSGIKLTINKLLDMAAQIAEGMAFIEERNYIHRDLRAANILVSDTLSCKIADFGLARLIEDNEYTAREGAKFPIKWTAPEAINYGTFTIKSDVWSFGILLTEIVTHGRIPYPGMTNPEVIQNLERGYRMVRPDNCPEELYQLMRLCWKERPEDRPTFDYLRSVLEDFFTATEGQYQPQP
SRC, sequence (P12931 whole entry): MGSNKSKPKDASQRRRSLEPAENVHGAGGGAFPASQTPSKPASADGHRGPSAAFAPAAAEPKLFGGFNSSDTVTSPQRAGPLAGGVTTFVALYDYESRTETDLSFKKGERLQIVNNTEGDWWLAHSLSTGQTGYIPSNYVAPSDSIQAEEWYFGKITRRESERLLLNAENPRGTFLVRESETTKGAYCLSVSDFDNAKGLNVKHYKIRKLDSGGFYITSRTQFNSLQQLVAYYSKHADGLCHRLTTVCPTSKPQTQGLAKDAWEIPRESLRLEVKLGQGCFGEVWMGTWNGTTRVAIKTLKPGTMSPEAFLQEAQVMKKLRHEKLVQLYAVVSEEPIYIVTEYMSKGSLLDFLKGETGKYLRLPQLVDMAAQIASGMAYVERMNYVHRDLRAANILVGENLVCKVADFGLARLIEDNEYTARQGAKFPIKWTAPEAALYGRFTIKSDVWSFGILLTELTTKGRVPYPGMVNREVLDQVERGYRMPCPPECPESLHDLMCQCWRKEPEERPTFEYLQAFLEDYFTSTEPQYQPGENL
EGFR, sequence (P00533 25-1210): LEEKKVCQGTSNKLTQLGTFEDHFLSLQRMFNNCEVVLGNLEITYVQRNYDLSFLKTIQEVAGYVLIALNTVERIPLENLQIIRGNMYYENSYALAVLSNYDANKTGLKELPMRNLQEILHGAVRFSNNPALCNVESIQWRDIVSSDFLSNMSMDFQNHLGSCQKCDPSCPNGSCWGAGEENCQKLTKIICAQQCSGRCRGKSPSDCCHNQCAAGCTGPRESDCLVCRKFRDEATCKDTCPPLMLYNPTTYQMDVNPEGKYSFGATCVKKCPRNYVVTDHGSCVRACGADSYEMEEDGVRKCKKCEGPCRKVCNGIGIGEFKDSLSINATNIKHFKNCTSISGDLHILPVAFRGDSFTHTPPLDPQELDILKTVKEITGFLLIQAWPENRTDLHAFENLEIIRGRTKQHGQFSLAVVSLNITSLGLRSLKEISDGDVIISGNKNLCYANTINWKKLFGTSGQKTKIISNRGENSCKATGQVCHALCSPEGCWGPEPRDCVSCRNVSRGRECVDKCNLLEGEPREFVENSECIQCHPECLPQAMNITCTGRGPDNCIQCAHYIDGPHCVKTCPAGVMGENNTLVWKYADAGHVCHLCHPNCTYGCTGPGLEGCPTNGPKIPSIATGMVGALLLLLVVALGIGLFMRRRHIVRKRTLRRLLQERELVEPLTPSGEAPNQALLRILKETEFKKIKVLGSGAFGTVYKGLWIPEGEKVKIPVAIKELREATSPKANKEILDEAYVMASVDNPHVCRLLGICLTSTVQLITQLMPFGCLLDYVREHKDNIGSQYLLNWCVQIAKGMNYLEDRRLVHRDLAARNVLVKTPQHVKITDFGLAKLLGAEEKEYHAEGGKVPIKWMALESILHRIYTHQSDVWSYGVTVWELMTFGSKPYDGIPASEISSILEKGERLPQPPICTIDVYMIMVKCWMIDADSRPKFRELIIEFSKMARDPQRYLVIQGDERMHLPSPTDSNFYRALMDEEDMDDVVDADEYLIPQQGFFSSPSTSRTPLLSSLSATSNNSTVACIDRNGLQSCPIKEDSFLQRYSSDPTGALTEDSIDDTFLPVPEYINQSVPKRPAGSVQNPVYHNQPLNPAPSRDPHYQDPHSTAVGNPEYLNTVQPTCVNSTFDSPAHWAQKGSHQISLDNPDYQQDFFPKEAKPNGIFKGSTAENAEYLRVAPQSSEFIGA

Broadly, the IC50 is the concentration that inhibits the measured activity by half. `C[C@@H]1[C@H](NC(=O)c2ccc(C3CC3)cc2F)CCCN1c1cnc(C(N)=O)c(Nc2ccc(N3CCN(C4CCCC4)CC3)cc2)n1` [Example A-125, 3-{[4-(4-cyclopentylpiperazin-1-yl)phenyl]amino}-5-[(2R,3R)-3-(4-cyclopropyl-2-fluorobenzamido)-2-methylpiperidin-1-yl]pyrazine-2-carboxamide]: the IC50 is 100 to 1000 nM at JAK3 (setting [1]); 100 to 1000 nM on LCK (setting [1]); 100 to 1000 nM on ITK (setting [1]); 100 to 1000 nM on EGFR (setting [1]); 10 to 100 nM against SRC (setting [1]).
As to `CN1CCN(c2ccc(Nc3nc(N4CCC[C@@H](n5ccc6cc(C7CC7)cc(F)c6c5=O)C4)cnc3C(N)=O)cc2)CC1` [Example A-133, 5-[(3R)-3-(6-cyclo-propyl-8-fluoro-1-oxo-1,2-dihydroisoquinolin-2-yl)piperidin-1-yl]-3-{[4-(4-methylpiperazin-1-yl)phenyl]amino}pyrazine-2-carboxamide], the IC50 at JAK3 (setting [1]) was in the range of 100 to 1000 nM; at LCK (setting [1]), 100 to 1000 nM; at ITK (setting [1]), 100 to 1000 nM; at EGFR (setting [1]), 100 to 1000 nM; against SRC (setting [1]) it was 10 to 100 nM.
Regarding `C=CC(=O)N1CCC[C@@H](Nc2nnc(C(N)=O)c(Nc3ccc(Cl)cc3)n2)[C@H]1C` [Example E-7, 3-(((2R,3R)-1-acryloyl-2-methylpiperidin-3-yl)amino)-5-((4-chlorophenyl)amino)-1,2,4-triazine-6-carboxamide], the half-maximal inhibitory concentration (IC50) on JAK3 (E compounds, Table 17) is below 10 nM; at LCK (E compounds, Table 17), below 10 nM; against ITK (E compounds, Table 17) it was at most 10 nM.
Turning to `C[C@@H]1[C@H](NC(=O)c2ccc3oc(C4CC4)nc3c2)CCCN1c1cnc(C(N)=O)c(Nc2cnn(C)c2)n1` [Example E-139, N-((2R,3R)-1-(5-carbamoyl-6-((1-methyl-1H-pyrazol-4-yl)amino)pyrazin-2-yl)-2-methylpiperidin-3-yl)-2-cyclopropylbenzo[d] oxazole-5-carboxamide], the concentration for half-maximal inhibition (IC50) at JAK3 (E compounds, Table 17) lay within 100 to 1000 nM; on LCK (E compounds, Table 17), 10 to 100 nM; at ITK (E compounds, Table 17), 100 to 1000 nM; against EGFR (E compounds, Table 17), 100 to 1000 nM; on SRC (E compounds, Table 17) it was 10 to 100 nM.
Regarding `C[C@@H]1[C@H](NC(=O)c2ccc(C3CC3)cc2Cl)CCCN1c1cnc(C(N)=O)c(Nc2ccc(N3CCN(C)CC3)cc2)n1` [Example A-180, 5-[(2R,3R)-3-(2-chloro-4-cyclopropylbenzamido)-2-methylpiperidin-1-yl]-3-{[4-(4-methylpiperazin-1-yl)phenyl]amino}pyrazine-2-carboxamide], the IC50 at JAK3 (setting [1]) was in the range of 1000 to 10000 nM; at LCK (setting [1]) it was 10 to 100 nM; against ITK (setting [1]), 100 to 1000 nM; against EGFR (setting [1]), 100 to 1000 nM; on SRC (setting [1]), 100 to 1000 nM.
With `C[C@@H]1[C@H](NC(=O)c2ccc(C3CC3)cn2)CCCN1c1cnc(C(N)=O)c(Nc2ccc(N3CCN(C)CC3)cc2)n1` [Example A-179, 5-[(2R,3R)-3-(5-cyclopropyl-pyridine-2-amido)-2-methylpiperidin-1-yl]-3-{[4-(4-methylpiperazin-1-yl)phenyl]amino}pyrazine-2-carboxamide], the 50% inhibitory concentration (IC50) on JAK3 (setting [1]) was in the range of 1000 to 10000 nM; at LCK (setting [1]), 100 to 1000 nM; against ITK (setting [1]) it was 100 to 1000 nM; against EGFR (setting [1]) it was 100 to 1000 nM; on SRC (setting [1]), 10 to 100 nM.
Regarding `C[C@@H]1[C@H](NC(=O)c2ccc(C3CC3)cc2F)CCCN1c1cnc(C(N)=O)c(Nc2ccc(S(=O)(=O)N3CCN(C)CC3)cc2)n1` [Example A-156, 5-[(2R,3R)-3-(4-cyclopropyl-2-fluorobenzamido)-2-methylpiperidin-1-yl]-3-({4-[(4-methylpiperazin-1-yl)sulfonyl]phenyl}amino)pyr-azine-2-carboxamide], the half-maximal inhibitory concentration (IC50) at JAK3 (setting [1]) was above 10000 nM; at LCK (setting [1]), 1000 to 10000 nM; at ITK (setting [1]), 100 to 1000 nM; against EGFR (setting [1]), 1000 to 10000 nM; against SRC (setting [1]) it was 100 to 1000 nM.
For `C[C@@H]1[C@H](NC(=O)c2ccc3c(c2)C(C)(C)OC3)CCCN1c1cnc(C(N)=O)c(Nc2cnn(C)c2)n1` [Example E-153, 5-((2R,3R)-3-(3,3-dimethyl-1,3-dihydroisobenzofuran-5-carboxamido)-2-methylpiperidin-1-yl)-3-((1-methyl-1H-pyrazol-4-yl)amino)pyrazine-2-carboxamide], the IC50 fell in the range of 1000 to 10000 nM at JAK3 (E compounds, Table 17); 10 to 100 nM at LCK (E compounds, Table 17); 100 to 1000 nM at ITK (E compounds, Table 17); 1000 to 10000 nM against EGFR (E compounds, Table 17); 10 to 100 nM on SRC (E compounds, Table 17).
For the compound `C=CC(=O)N[C@@H]1CCCN(c2nnc(C(N)=O)c(Nc3ccc(C4(C)CCN(C5CC5)CC4)cc3)n2)[C@@H]1C` [Example E-2, 3-((2R,3R)-3-acrylamido-2-methylpiperidin-1-yl)-5-((4-(1-cyclopropyl-4-methylpiperidin-4-yl)phenyl)amino)-1,2,4-triazine-6-carboxamide], the IC50 on JAK3 (E compounds, Table 17) was in the range of 10 to 100 nM; at LCK (E compounds, Table 17), 100 to 1000 nM; against ITK (E compounds, Table 17), 10 to 100 nM.
As for `C=CC(=O)N1CCC[C@@H](Nc2nnc(C(N)=O)c(Nc3ccc(C4(C)CCN(C5CC5)CC4)cc3)n2)[C@H]1C` [Example E-127, 3-(((2R,3R)-1-acryloyl-2-methylpiperidin-3-yl)amino)-5-((4-(1-cyclopropyl-4-methylpiperidin-4-yl)phenyl)amino)-1,2,4-triazine-6-carboxamide], the IC50 on JAK3 (E compounds, Table 17) is below 10 nM; on LCK (E compounds, Table 17), below 10 nM; against ITK (E compounds, Table 17), at most 10 nM; against SRC (E compounds, Table 17), at most 10 nM.
For the compound `C=CC(=O)N1CCC[C@@H](Nc2nnc(C(N)=O)c(Nc3ccc(C(C)(C)C)cc3)n2)C1` [Example E-24, (R)-3-(1-acryloylpiperidin-3-ylamino)-5-(4-tert-butylphenylamino)-1,2,4-triazine-6-carboxamide], the IC50 at JAK3 (E compounds, Table 17) was below 10 nM; at LCK (E compounds, Table 17), 100 to 1000 nM; at ITK (E compounds, Table 17), at most 10 nM; against EGFR (E compounds, Table 17), at most 10 nM.
Regarding `C=CC(=O)N1CCC[C@@H](N(C)c2cnc(C(N)=O)c(Nc3ccc(C(C)C)cc3)n2)C1` [Example E-102, (R)-5-((1-acryloylpiperidin-3-yl)(methyl)amino)-3-(4-isopropylphenylamino) pyrazine-2-carboxamide], the half-inhibitory concentration (IC50) is 10 to 100 nM on JAK3 (E compounds, Table 17); 1000 to 10000 nM on LCK (E compounds, Table 17); 10 to 100 nM at ITK (E compounds, Table 17); 100 to 1000 nM on SRC (E compounds, Table 17).
Regarding `CC(C)c1ccc(Nc2nc(N3CCC[C@@H](N4CCC[C@@H](Nc5cc(Cl)cc(C(F)(F)F)c5)C4=O)C3)nnc2C(N)=O)cc1` [Example E-128, 3-((3R,3′R)-3-((3-chloro-5-(trifluoromethyl)phenyl)amino)-2-oxo-[1,3′-bipiperidin]-1′-yl)-5-((4-isopropylphenyl)amino)-1,2,4-triazine-6-carboxamide], the IC50 at JAK3 (E compounds, Table 17) is 1000 to 10000 nM; at LCK (E compounds, Table 17) it was 10 to 100 nM; against ITK (E compounds, Table 17), 10 to 100 nM; against SRC (E compounds, Table 17) it was 10 to 100 nM.
Turning to `C=CC(=O)N[C@@H]1CCCN(c2nnc(C(N)=O)c(Nc3ccc(Cl)cc3)n2)[C@@H]1C` [Example E-5, 3-((2R,3R)-3-acrylamido-2-methylpiperidin-1-yl)-5-((4-chlorophenyl)amino)-1,2,4-triazine-6-carboxamide], the half-inhibitory concentration (IC50) on JAK3 (E compounds, Table 17) was below 10 nM; at LCK (E compounds, Table 17), below 10 nM; on ITK (E compounds, Table 17), 10 to 100 nM.
